From patent US20130288991A1, “BLOCK COPOLYMERS FOR STABLE MICELLES” (Intezyne Technologies, Inc., priority 2012, published 2013)
Blank lines part the entries; values can stand above or below the compound they belong to.

How the values were obtained:
A549 lung cancer cells = assay: In-vitro cytotoxicity of aminopterin formulations (cell titer-glo); assay type: cell-based; conditions: read-out: IC50 (cell viability inhibited by 50%); A549, 72 hours
Experimental: (§1) Cells originally purchased from ATCC (A549, Panc-1, OVCAR3, and BXPC-3) were seeded in 96 well tissue culture plates to be 50% confluent by 24 hours. Cells were incubated at 37° C. with 5.0% CO2. Cells were treated with escalading doses of free aminopterin, crosslinked aminopterin formulation, uncrosslinked aminopterin formulation, and non drug-loaded micelle formulations 24 hours after plate seeding. Free aminopterin was dissolved in DMSO and administered to cells with a total volume of DMSO equal to or less than 0.0025%. Micelle formulations were re-suspended in biology grade water. Dilutions were done in deep well plates with cell media and water or DMSO (for free aminopterin only) equalizing displaced volume. Incubation media was aspirated from the 96 well plates and 100 μl of each dilution was added to the wells in triplicate and incubated over 72 hours at 37° C. with 5.0% CO2. Crosslinked and uncrosslinked non drug-loaded micelle formulations were administered at the four highest doses and were calculated at comparative mg/ml concentrations to drug-loaded micelle concentrations of delivery vehicle. After 72-hour incubation, plates were allowed to cool to room temperature and 25 μl of cell titer-glo was added to each well. Plates were briefly shaken to mix and luminescence readings were read on a plate reader. Luminescence reading for triplicate doses are averaged and divided by average luminescence readings from untreated cells on the same plate to calculate the % of viable cells per dose.
(§2) The aminopterin loaded micelles from Example 119 and Example 121 were tested for cytotoxicity compared to free aminopterin and the crosslinked and uncrosslinked non drug-loaded micelle formulations (from polymer of Example 18) against A549 lung, OVCAR3 ovarian, PANC-1 (folate receptor +) pancreatic and BxPC3 (folate receptor −) pancreatic cancer cell lines. The cytotoxicity profiles for each treatment for each cell line in FIG. 14 (A549 Lung), FIG. 15 (OVCAR3 Ovarian), FIG. 16 (PANC-1 Pancreatic), and FIG. 17 (BxPC3 pancreatic). […] Treatment with both uncrosslinked and crosslinked non drug-loaded micelles was well tolerated, with greater than 80% viability for all cells tested.

[1] = test system: BxPC3 pancreatic (folate receptor −) cancer cells; assay: as above; assay type: cell-based; conditions: BxPC3, 72 hours
Experimental: as §1, §2

[2] = test system: OVCAR3 ovarian cancer cells; assay: as above; assay type: cell-based; conditions: OVCAR3, 72 hours
Experimental: as §1, §2

[3] = test system: PANC-1 pancreatic (folate receptor +) cancer cells; assay: as above; assay type: cell-based; conditions: read-out: IC50 (cell viability inhibited by 50%); PANC-1, 72 hours
Experimental: as §1, §2

[4] = Fisher, rat, in vivo, iv, 5 mg/kg
in vivo [5] = conditions: Fisher, rat, iv, 5 mg/kg
in vivo [6] = assay: in vivo; parameters: species or system Fisher rats; conditions: Fisher, rat, iv, 10 mg/kg
Experimental: The delivery vehicle for drug administration was isotonic saline. […] Samples were analyzed on a Waters Alliance 2695 equiped with a 2475 fluorescence detector (Ex=470 nm; Em=580). A 5 μL sample injection was made onto a Waters 4 μm Nova Pak C18 (3.9×150 mm) at 30° C. with a flow rate of 0.750 mL per minute of 10 mM phosphate buffer (pH=1.4), methanol and acetonitrile (gradient from 70/10/20 to 40/10/50 for buffer/methanol/acetonitrile was made over eight minutes). Analyte eluted at 5.9 minutes under these conditions, was normalized to the internal standard, and quantitated using a standard curve comprised of seven standards.

[7] = test system: HCT-116 colon cancer cells; assay: Anti-tumor efficacy of SN-38 micelles in HCT-116 xenograft model; assay type: in vivo, mice; conditions: irinotecan at 50 mg/kg, IV 3×QW

SMILES: Nc1nc(N)c2nc(CNc3ccc(C(=O)N[C@@H](CCC(=O)O)C(=O)O)cc3)cnc2n1 [Aminopterin, aminopterin]
IC50 (A549 lung cancer cells): 7 to 25 nM
IC50 (cell viability inhibited by 50%) [1]: no IC50 was obtained
IC50 (cell viability inhibited by 50%) [2]: no IC50 was obtained
IC50 [3]: 7 to 25 nM

Exposure of cabazitaxel to the plasma compartment over 15 minutes [4]: 200 ng·h/mL
Cmax (in vivo [5]): 1200 ng/mL
SMILES: CO[C@H]1C(=O)[C@]2(C)[C@@H](OC)C[C@H]3OC[C@@]3(OC(C)=O)[C@H]2[C@H](OC(=O)c2ccccc2)[C@]2(O)C[C@H](OC(=O)[C@H](O)[C@@H](NC(=O)OC(C)(C)C)c3ccccc3)C(C)=C1C2(C)C [free cabizataxel, cabazitaxel]

AUC (in vivo [6]): 1300 ng·h/mL
Cmax (in vivo [6]): 3300 ng/mL
Half-life (terminal, elimination) (in vivo [6]): 3.3 h
half-life (in vivo [6]; Half-life (terminal, elimination)): 3.4 h
SMILES: COc1cccc2c1C(=O)c1c(O)c3c(c(O)c1C2=O)C[C@@](O)(C(C)=O)C[C@@H]3O[C@H]1C[C@H](N)[C@H](O)[C@H](C)O1 [free daunorubicin, daunorubicin]

SMILES: CCc1c2c(nc3ccc(OC(=O)N4CCC(N5CCCCC5)CC4)cc13)-c1cc3c(c(=O)n1C2)COC(=O)[C@]3(O)CC [irinotecan]
Mean tumor growth rate [7]: 18.9 mm^3 per day
